Experimental findings from patent US20260284014A1, “3,5-DIAMINOTRIAZOLE DERIVATIVES AND USES THEREOF FOR TREATING OCULAR DISEASES” (CENTRE NATIONAL DE LA RECHERCHE SCIENTIFIQUE, priority 2023, published 2026) are described below.

Holding throughout (assay type): cell-based
In one test the test system is ARPE-19 cells. The test can be described thus: Cell viability (XTT assay). Particulars: Homo sapiens, 48 h, read-out: A. Safety IC50 on ARPE-19 cells. The procedure:
ARPE-19 cells were incubated in a 96-well plate with different effectors for 48 hours. Fifty microliters of sodium 3′-[1-phenylaminocarbonyl)-3,4-tetrazolium]-bis(4-methoxy-6-nitro) benzene sulfonic acid hydrate (XTT) reagent was added to each well. The test is based on the cleavage of the yellow tetrazolium salt XTT to form an orange formazan dye by metabolically active cells. This bio-reduction occurs in viable cells only and is associated with NAD(P)H production through glycolysis. Therefore, the amount of formazan dye measured at 490 nm, correlates directly with the number of metabolically active cells reflecting cell proliferation, viability, and cytotoxicity. Each assay was performed in quadruplicate.
(§1) All compounds were evaluated in different experiments. Results are represented as the mean of three independent experiments. A. ARPE-19 cells were treated with dose response of compound for 48 h. Values are reported as IC50 measured with the XTT assay. B and C. ARPE-19 cells were treated with 5 μM (B) or 1 μM (C) compound then with 200 μM H2O2 for 2 h. ROS were analyzed by cytometry. […] As illustrated in FIG. 1A. D. ARPE-19 cells were treated with 2.5 μM compound for 48 h and the level of CXCL1 mRNA was evaluated by qPCR. […] As illustrated in FIG. 1B. E. TIME cells were pre-treated with 2.5 μM compound for 1 h then stimulated with 100 ng/ml CXCL8 for 15 min p-ERK levels were analyzed by immunoblotting. HSP90 served as loading control. […] As illustrated in FIG. 1C.

A further test relates to ROS. In words: ROS labeling by cytometry after H2O2. The settings on record: Homo sapiens, ARPE-19; for inhibition at 1 µM: 1 μM compound then 200 μM H2O2 for 2 h, read-out: C. ROS inhibition 1 μM - ARPE-19 cells; for inhibition at 5 µM: 5 μM compound then 200 μM H2O2 for 2 h, read-out: B. ROS inhibition 5 μM - ARPE-19 cells. The procedure:
ARPE-19 cells were treated with MCK349 30 minutes then with 200 μM H2O2 for 2 h. 10 μM DCF-DA (2′,7′-Dichlorofluorescein diacetate) were added on cell media for 30 min. Cells were rinsed then detached (trypsin) and resuspended in PBS 0.5% BSA and 2 mM EDTA. The cells are analyzed by cytometry (ROS labeled with DCFDA-FITC).
as §1

Another test deals with ERK activation (p-ERK). In words: p-ERK immunoblotting after CXCL8 stimulation. Particulars: 2.5 μM compound 1 h then 100 ng/ml CXCL8 for 15 min; read-out: E. p-ERK inhibition - TIME. The procedure: Cells were lysed in buffer containing 3% SDS, 10% glycerol and 0.825 mM Na2HPO4. 30 to 50 μg of proteins separated on 10% SDS-PAGE, transferred onto a PVDF membrane and then exposed to the appropriate antibodies. Proteins were visualized with the ECL system using horseradish peroxidase-conjugated anti-rabbit or anti-mouse antibodies.
as §1

Some results are limits rather than exact numbers.

Turning to `CC(C)c1ccc(Cn2nc(Nc3ccc(Cl)c(Cl)c3)nc2N)cc1` [MCK350, N^3-(3,4-dichlorophenyl)-1-(4-isopropylbenzyl)-1H-1,2,4-triazole-3,5-diamine], the 50% inhibitory concentration (IC50) in the test on ARPE-19 cells is over 25 µM. Further, in the test with ROS, the inhibition at 1 µM was at least 50% and the inhibition at 5 µM is at least 50%. The inhibition at 2.5 µM with ERK activation (p-ERK) is at least 50%.

For `Cc1ccc(Cn2nc(Nc3ccccc3)nc2N)cc1` [MCK271, 1-(4-methylbenzyl)-N^3-phenyl-1H-1,2,4-triazole-3,5-diamine], the IC50 in the test with ARPE-19 cells was over 25 µM. In addition, in the test on ROS, the inhibition at 1 µM was at least 50% and the inhibition at 5 µM is at least 50%. Also, the inhibition at 2.5 µM in the test on ERK activation (p-ERK) is at least 50%.

For the molecule `Cc1ccc(Cn2nc(Nc3ccccn3)nc2N)cc1` [MCK279, 1-(4-methylbenzyl)-N^3-(pyridin-2-yl)-1H-1,2,4-triazole-3,5-diamine], the IC50 in the test on ARPE-19 cells is over 25 µM. In the test with ROS, the inhibition at 1 µM was under 50% and the inhibition at 5 µM is under 50%. In addition, the inhibition at 2.5 µM in the test on ERK activation (p-ERK) is at least 50%.

`Nc1nc(Nc2ccccc2)n(Cc2c(F)cccc2F)n1` [MCK257, 1-(2,6-difluorobenzyl)-N^5-phenyl-1H-1,2,4-triazole-3,5-diamine]: in the test on ARPE-19 cells, the IC50 is over 25 µM. Moreover, in the test with ROS, the inhibition at 1 µM was at least 50% and the inhibition at 5 µM was at least 50%. The inhibition at 2.5 µM in the test on ERK activation (p-ERK) was at least 50%.

Regarding `Nc1nc(Nc2ccccn2)nn1Cc1cccc(C(F)(F)F)c1` [MCK282, N^3-(pyridin-2-yl)-1-(3-(trifluoromethyl)benzyl)-1H-1,2,4-triazole-3,5-diamine], the IC50 in the test with ARPE-19 cells was over 25 µM. Besides, in the test with ROS, the inhibition at 1 µM is under 50% and the inhibition at 5 µM was under 50%. Further, the inhibition at 2.5 µM in the test with ERK activation (p-ERK) is at least 50%.

Take `Nc1nc(Nc2ccccc2)n(Cc2cccc(C(F)(F)F)c2)n1` [MCK338, N^5-phenyl-1-(3-(trifluoromethyl)benzyl)-1H-1,2,4-triazole-3,5-diamine]: the IC50 in the test with ARPE-19 cells is over 25 µM. Besides, in the test with ROS, the inhibition at 1 µM is at least 50% and the inhibition at 5 µM was at least 50%. Besides, in the test with ERK activation (p-ERK), the inhibition at 2.5 µM is under 50%.

For the molecule `Nc1nc(Nc2ccccc2)n(Cc2ccccc2)n1` [MCK248, 1-benzyl-N^5-phenyl-1H-1,2,4-triazole-3,5-diamine], in the test on ARPE-19 cells, the IC50 is over 25 µM. In the test with ROS, the inhibition at 1 µM is under 50% and the inhibition at 5 µM was at least 50%. Also, in the test with ERK activation (p-ERK), the inhibition at 2.5 µM was under 50%.

Regarding `Nc1nc(Nc2ccc(Br)cc2)nn1Cc1cccc(Br)c1` [MCK346, 1-(3-bromobenzyl)-N^3-(4-bromophenyl)-1H-1,2,4-triazole-3,5-diamine], in the test with ARPE-19 cells, the IC50 was over 25 µM. For the same molecule, in the test with ROS, the inhibition at 1 µM was at least 50% and the inhibition at 5 µM is at least 50%. In addition, the inhibition at 2.5 µM in the test with ERK activation (p-ERK) is at least 50%.

With `Nc1nc(Nc2ccccc2)nn1Cc1cc(F)cc(F)c1` [MCK274, 1-(3,5-difluorobenzyl)-N^3-phenyl-1H-1,2,4-triazole-3,5-diamine], the 50% inhibitory concentration (IC50) with ARPE-19 cells was over 25 µM. Moreover, in the test with ROS, the inhibition at 1 µM was at least 50% and the inhibition at 5 µM was at least 50%. In addition, in the test on ERK activation (p-ERK), the inhibition at 2.5 µM is under 50%.

On to `Nc1nc(Nc2cccnc2)nn1Cc1ccccc1` [MCK254, 1-benzyl-N^3-(pyridin-3-yl)-1H-1,2,4-triazole-3,5-diamine], for which, in the test on ARPE-19 cells, the half-inhibitory concentration (IC50) is over 25 µM. In addition, in the test on ROS, the inhibition at 1 µM is under 50% and the inhibition at 5 µM was under 50%. The inhibition at 2.5 µM in the test with ERK activation (p-ERK) was under 50%.

`N#Cc1ccc(Cn2nc(Nc3ccccn3)nc2N)cc1` [MCK281, 4-((5-amino-3-(pyridin-2-ylamino)-1H-1,2,4-triazol-1-yl)methyl)benzonitrile]: the IC50 with ARPE-19 cells is over 25 µM. Moreover, in the test with ROS, the inhibition at 1 µM is under 50% and the inhibition at 5 µM is under 50%. Further, the inhibition at 2.5 µM with ERK activation (p-ERK) is at least 50%.

With `Nc1nc(Nc2ccccn2)nn1Cc1ccccc1` [MCK253, 1-benzyl-N^3-(pyridin-2-yl)-1H-1,2,4-triazole-3,5-diamine], the IC50 with ARPE-19 cells is over 25 µM. Besides, in the test with ROS, the inhibition at 1 µM was under 50% and the inhibition at 5 µM is under 50%. The inhibition at 2.5 µM in the test on ERK activation (p-ERK) is under 50%.

As for `Nc1nc(Nc2ccccn2)nn1CC(=O)c1cccc([N+](=O)[O-])c1` [MCK295, 2-(5-amino-3-(pyridin-2-ylamino)-1H-1,2,4-triazol-1-yl)-1-(3-nitrophenyl)ethan-1-one], in the test with ARPE-19 cells, the IC50 is over 25 µM. Besides, in the test on ROS, the inhibition at 1 µM was under 50% and the inhibition at 5 µM was under 50%. For the same molecule, the inhibition at 2.5 µM with ERK activation (p-ERK) was at least 50%.

With `COc1ccc(Nc2nc(N)n(Cc3cccc(Br)c3)n2)cc1` [MCK340, 1-(3-bromobenzyl)-N^3-(4-methoxyphenyl)-1H-1,2,4-triazole-3,5-diamine], the concentration for half-maximal inhibition (IC50) in the test on ARPE-19 cells was over 25 µM. In the test on ROS, the inhibition at 1 µM is under 50% and the inhibition at 5 µM is under 50%. Besides, the inhibition at 2.5 µM in the test with ERK activation (p-ERK) was under 50%.

As to `COc1cccc(Cn2nc(Nc3ccccc3)nc2N)c1` [MCK261, 1-(3-methoxybenzyl)-N^3-phenyl-1H-1,2,4-triazole-3,5-diamine], the IC50 in the test on ARPE-19 cells was over 25 µM. In the test with ROS, the inhibition at 1 µM was under 50% and the inhibition at 5 µM is at least 50%. Moreover, the inhibition at 2.5 µM in the test on ERK activation (p-ERK) was at least 50%.

`Nc1nc(Nc2ccccc2)nn1Cc1cccc(C(F)(F)F)c1` [MCK273, N^3-phenyl-1-(3-(trifluoromethyl)benzyl)-1H-1,2,4-triazole-3,5-diamine]: the IC50 in the test on ARPE-19 cells was over 25 µM. In addition, in the test on ROS, the inhibition at 1 µM is at least 50% and the inhibition at 5 µM was at least 50%. The inhibition at 2.5 µM in the test with ERK activation (p-ERK) was at least 50%.

Take `Nc1nc(Nc2ccccc2)nn1Cc1ccc([N+](=O)[O-])cc1` [MCK288]: in the test with ARPE-19 cells, the IC50 is over 25 µM. Further, in the test on ROS, the inhibition at 1 µM was at least 50% and the inhibition at 5 µM is at least 50%. For the same molecule, the inhibition at 2.5 µM in the test with ERK activation (p-ERK) is under 50%.

For the molecule `Nc1nc(Nc2ccccc2)nn1Cc1cccc([N+](=O)[O-])c1` [MCK275], the IC50 with ARPE-19 cells is over 25 µM. Further, in the test on ROS, the inhibition at 1 µM was at least 50% and the inhibition at 5 µM is at least 50%. Besides, the inhibition at 2.5 µM with ERK activation (p-ERK) is under 50%.

Consider `Nc1nc(Nc2ccccc2)nn1CC(=O)c1ccccc1` [MCK299, 2-(5-amino-3-(phenylamino)-1H-1,2,4-triazol-1-yl)-1-phenylethan-1-one], for which the IC50 with ARPE-19 cells is over 25 µM. Further, in the test with ROS, the inhibition at 1 µM was under 50% and the inhibition at 5 µM is under 50%. Also, in the test on ERK activation (p-ERK), the inhibition at 2.5 µM was at least 50%.

Take `Nc1nc(Nc2ccccn2)nn1Cc1c(F)cccc1F` [MCK259, 1-(2,6-difluorobenzyl)-N^3-(pyridin-2-yl)-1H-1,2,4-triazole-3,5-diamine]: the IC50 in the test with ARPE-19 cells is over 25 µM. Moreover, in the test with ROS, the inhibition at 1 µM was under 50% and the inhibition at 5 µM was under 50%. Further, the inhibition at 2.5 µM with ERK activation (p-ERK) was at least 50%.

With `CC(C)c1ccc(Cn2nc(N)nc2Nc2ccccc2)cc1` [MCK262, 1-(4-isopropylbenzyl)-N^5-phenyl-1H-1,2,4-triazole-3,5-diamine], in the test with ARPE-19 cells, the IC50 was over 25 µM. For the same molecule, in the test on ROS, the inhibition at 1 µM was at least 50% and the inhibition at 5 µM is at least 50%. In addition, the inhibition at 2.5 µM in the test with ERK activation (p-ERK) was at least 50%.

Take `COc1cccc(Cn2nc(N)nc2Nc2ccccc2)c1` [MCK260, 1-(3-methoxybenzyl)-N^5-phenyl-1H-1,2,4-triazole-3,5-diamine]: the IC50 with ARPE-19 cells was over 25 µM. In the test on ROS, the inhibition at 1 µM is at least 50% and the inhibition at 5 µM was at least 50%. The inhibition at 2.5 µM in the test on ERK activation (p-ERK) is at least 50%.

For `Cc1ccccc1Cn1nc(Nc2ccccn2)nc1N` [MCK269, 1-(2-methylbenzyl)-N^3-(pyridin-2-yl)-1H-1,2,4-triazole-3,5-diamine], the 50% inhibitory concentration (IC50) in the test on ARPE-19 cells was over 25 µM. Moreover, in the test on ROS, the inhibition at 1 µM was at least 50% and the inhibition at 5 µM is at least 50%. Moreover, the inhibition at 2.5 µM with ERK activation (p-ERK) is at least 50%.

Take `COC(=O)c1ccc(Nc2nc(N)nn2Cc2cccc(Br)c2)cc1` [MCK347, methyl-4-((3-amino-1-(3-bromobenzyl)-1H-1,2,4-triazol-5-yl)amino)benzoate]: the half-maximal inhibitory concentration (IC50) in the test on ARPE-19 cells was over 25 µM. In addition, in the test with ROS, the inhibition at 1 µM is under 50% and the inhibition at 5 µM was under 50%. Also, in the test on ERK activation (p-ERK), the inhibition at 2.5 µM was at least 50%.

For `Nc1nc(Nc2ccccc2)nn1Cc1ccc(Cl)cc1` [MCK272, 1-(4-chlorobenzyl)-N^3-phenyl-1H-1,2,4-triazole-3,5-diamine], in the test with ARPE-19 cells, the IC50 is over 25 µM. Further, in the test on ROS, the inhibition at 1 µM is under 50% and the inhibition at 5 µM is at least 50%. Further, the inhibition at 2.5 µM with ERK activation (p-ERK) was at least 50%.
